US20200121684A1, “MODULATORS OF BTK PROTEOLYSIS AND METHODS OF USE” (Yale University, priority 2018, published 2020)
Where two headings read alike, the source gives them in different places.

Assays:
[1] = target: T1, BTK (Homo sapiens, UniProt Q06187); assay: BTK degradation in NAMALWA cells, immunoblot; type: cell-based
T1 construct: host or cells: NAMALWA

[2] = target: T2, HER3 (Homo sapiens, UniProt P21860); assay: HER3 (ERBB3) degradation, immunoblot; type: cell-based; settings: Table 5
T2 construct: endogenous in cells

[3] = Pharmacokinetics after IV compound administration in mice; type: in vivo; settings: for pharmacokinetic profile relative to COMPOUND 102: IV mice; for Clearance (Cl) / Half Life (t1/2) / Cmax / AUC(0-t): IV mice (1 mg/Kg); for Cmax: Tmax 0.033 h; for AUC(0-t): mouse, in vivo, read-out: Exposure (AUClast)

T2 sequence (P21860 20-1342): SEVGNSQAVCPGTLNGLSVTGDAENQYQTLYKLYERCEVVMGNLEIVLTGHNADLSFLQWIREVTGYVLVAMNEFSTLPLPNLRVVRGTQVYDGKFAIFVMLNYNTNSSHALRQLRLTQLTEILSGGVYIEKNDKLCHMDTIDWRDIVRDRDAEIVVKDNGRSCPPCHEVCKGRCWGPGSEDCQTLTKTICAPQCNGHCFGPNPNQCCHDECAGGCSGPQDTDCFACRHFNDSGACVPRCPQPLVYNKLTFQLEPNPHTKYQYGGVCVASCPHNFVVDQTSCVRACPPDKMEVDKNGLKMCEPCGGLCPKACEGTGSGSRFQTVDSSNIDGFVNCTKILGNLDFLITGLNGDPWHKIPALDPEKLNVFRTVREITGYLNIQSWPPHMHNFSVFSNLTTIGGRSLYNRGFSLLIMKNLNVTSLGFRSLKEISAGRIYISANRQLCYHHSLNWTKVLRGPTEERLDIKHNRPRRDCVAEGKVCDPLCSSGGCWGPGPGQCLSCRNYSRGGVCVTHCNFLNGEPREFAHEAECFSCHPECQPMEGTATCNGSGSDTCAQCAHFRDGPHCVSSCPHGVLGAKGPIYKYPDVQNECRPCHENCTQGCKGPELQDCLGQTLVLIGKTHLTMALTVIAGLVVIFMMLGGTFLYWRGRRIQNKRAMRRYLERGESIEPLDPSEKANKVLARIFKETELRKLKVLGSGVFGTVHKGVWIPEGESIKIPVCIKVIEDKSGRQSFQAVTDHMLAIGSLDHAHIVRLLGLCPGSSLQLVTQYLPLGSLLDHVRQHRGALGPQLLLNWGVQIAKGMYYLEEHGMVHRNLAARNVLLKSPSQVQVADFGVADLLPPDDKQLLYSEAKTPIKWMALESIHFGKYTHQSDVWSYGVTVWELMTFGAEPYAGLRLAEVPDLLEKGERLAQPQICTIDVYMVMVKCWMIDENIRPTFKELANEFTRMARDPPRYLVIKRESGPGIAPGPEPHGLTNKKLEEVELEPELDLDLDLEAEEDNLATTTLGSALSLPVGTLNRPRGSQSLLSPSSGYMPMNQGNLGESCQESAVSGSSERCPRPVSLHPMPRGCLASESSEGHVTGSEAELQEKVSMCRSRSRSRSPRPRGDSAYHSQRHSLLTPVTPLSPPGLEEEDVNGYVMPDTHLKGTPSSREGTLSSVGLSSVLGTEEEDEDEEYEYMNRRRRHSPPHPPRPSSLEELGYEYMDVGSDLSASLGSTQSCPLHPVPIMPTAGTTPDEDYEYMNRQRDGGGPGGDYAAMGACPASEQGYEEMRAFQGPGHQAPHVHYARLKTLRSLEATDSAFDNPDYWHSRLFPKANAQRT
T1 sequence (Q06187 whole entry): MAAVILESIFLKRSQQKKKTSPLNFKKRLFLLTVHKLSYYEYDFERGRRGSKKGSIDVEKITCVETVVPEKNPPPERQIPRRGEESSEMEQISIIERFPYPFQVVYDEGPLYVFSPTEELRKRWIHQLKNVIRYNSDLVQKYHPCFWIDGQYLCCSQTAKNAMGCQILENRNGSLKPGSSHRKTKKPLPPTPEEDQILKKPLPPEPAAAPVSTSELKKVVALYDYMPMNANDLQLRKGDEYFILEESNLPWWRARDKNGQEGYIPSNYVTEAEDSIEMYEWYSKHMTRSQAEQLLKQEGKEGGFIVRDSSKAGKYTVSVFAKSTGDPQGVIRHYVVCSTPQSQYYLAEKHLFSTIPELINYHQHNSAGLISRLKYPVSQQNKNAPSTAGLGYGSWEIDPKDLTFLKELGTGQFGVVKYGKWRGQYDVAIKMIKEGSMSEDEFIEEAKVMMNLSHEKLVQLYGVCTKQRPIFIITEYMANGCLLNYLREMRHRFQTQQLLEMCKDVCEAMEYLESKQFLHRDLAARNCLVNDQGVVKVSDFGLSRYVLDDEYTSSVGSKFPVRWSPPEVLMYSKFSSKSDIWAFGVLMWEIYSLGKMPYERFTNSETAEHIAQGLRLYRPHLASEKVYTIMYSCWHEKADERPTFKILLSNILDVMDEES

With `Cc1ncsc1-c1ccc(CNC(=O)[C@@H]2C[C@@H](O)CN2C(=O)[C@@H](NC(=O)COCCOCCN2CCC(n3nc(-c4ccc(Oc5ccccc5)cc4)c4c(N)ncnc43)CC2)C(C)(C)C)cc1` [Compound 129, (2S,4R)-1-((S)-2-(2-(2-(2-(4-(4-amino-3-(4-phenoxyphenyl)-1H-pyrazolo[3,4-d]pyrimidin-1-yl)piperidin-1-yl)ethoxy)ethoxy)acetamido)-3,3-dimethylbutanoyl)-4-hydroxy-N-(4-(4-methylthiazol-5-yl)benzyl)pyrrolidine-2-carboxamide] the Dmax ([1]; NAMALWA cells, read-out: Dmax) was < 50%, the DC50 ([1]; Table 5, NAMALWA cells) was > 1 µM and the Max ([1]; Table 5, at 2.5 μM) was 49%. The DC50 ([1]; Table 6, in NAMALWA cells line) was > 1 µM and the Dmax ([1]; Table 6, in NAMALWA cells line) was <50%.
In the case of `Cc1ncsc1-c1ccc(CNC(=O)[C@@H]2C[C@@H](O)CN2C(=O)[C@@H](NC(=O)COCCCCCOCCCCCCN2CCC(n3nc(-c4ccc(Oc5ccccc5)cc4)c4c(N)ncnc43)CC2)C(C)(C)C)cc1` [Compound 111, (2S,4R)-1-((S)-2-(2-(5-(6-(4-(4-amino-3-(4-phenoxyphenyl)-1H-pyrazolo[3,4-d]pyrimidin-1-yl)piperidin-1-yl)hexyloxy)pentyloxy)acetamido)-3,3-dimethylbutanoyl)-4-hydroxy-N-(4-(4-methylthiazol-5-yl)benzyl)pyrrolidine-2-carboxainide], the “HER3 Degradation” value [2] was “No”.
With `Nc1ncnc2c1c(-c1ccc(Oc3ccccc3)cc1)nn2C1CCN(CCOCCOCCOc2ccc3c(c2)CN(C2CCC(=O)NC2=O)C3=O)CC1` (stereo not drawn) [COMPOUND 135, 3-(5-(2-(2-(2-(4-(4-amino-3-(4-phenoxyphenyl)-1H-pyrazolo[3,4-d]pyrimidin-1-yl)piperidin-1-yl)ethoxy)ethoxy)ethoxy)-1-oxoisoindolin-2-yl)piperidine-2,6-dione] the “degradation potency/profile compared with COMPOUND 102” value ([1]; NAMALWA cells) was “similarly potent to COMPOUND 102”, the Dmax ([1]; NAMALWA cells, read-out: Dmax) was > 99% and the DC50 ([1]; Table 5, NAMALWA cells) was 0.008 µM. The DC50 ([1]; Table 6, in NAMALWA cells line) was 0.008 µM, the Dmax ([1]; Table 6, in NAMALWA cells line) was >99% and the “pharmacokinetic profile relative to COMPOUND 102” value [3] was “superior pharmacokinetic profiles relative to COMPOUND 102”. For the same compound, the “Clearance (Cl)” value [3] was 40.8 mL/min/kg, the “Half Life (t1/2)” value [3] was 1.64 h and the Cmax [3] was 2100 ng/mL. For the same compound, the AUC(0-t) [3] was 405 ng·h/mL.
With `Nc1ncnc2c1c(-c1ccc(Oc3ccccc3)cc1)nn2C1CCN(CCOCCOCCOc2ccc3c(c2)C(=O)N(C2CCC(=O)NC2=O)C3=O)CC1` (stereo not drawn) [COMPOUND 131, 5-(2-(2-(2-(4-(4-amino-3-(4-phenoxyphenyl)-1H-pyrazolo[3,4-d]pyrimidin-1-yl)piperidin-1-yl)ethoxy)ethoxy)ethoxy)-2-(2,6-dioxopiperidin-3-yl)isoindoline-1,3-dione] the “degradation potency/profile compared with COMPOUND 102” value ([1]; NAMALWA cells) was “similarly potent degradation profile as COMPOUND 102”, the DC50 ([1]; Table 5, NAMALWA cells) was 0.011 µM and the DC50 ([1]; Table 6, in NAMALWA cells line) was 0.011 µM. The Dmax ([1]; Table 6, in NAMALWA cells line, read-out: Dmax) was > 99%, the “pharmacokinetic profile relative to COMPOUND 102” value [3] was “superior pharmacokinetic profiles relative to COMPOUND 102” and the “Clearance (Cl)” value [3] was 102 mL/min/kg. For the same compound, the “Half Life (t1/2)” value [3] was 1.62 h, the Cmax [3] was 831 ng/mL and the AUC(0-t) [3] was 166 ng·h/mL.
In the case of `Cc1ncsc1-c1ccc(CNC(=O)[C@@H]2C[C@@H](O)CN2C(=O)[C@@H](NC(=O)COCCOCCOCCOCCCCN2CCC(n3nc(-c4ccc(Oc5ccccc5)cc4)c4c(N)ncnc43)CC2)C(C)(C)C)cc1` [Compound 113, (2S,4R)-1-((S)-19-(4-(4-amino-3-(4-phenoxyphenyl)-1H-pyrazolo[3,4-d]pyrimidin-1-yl)piperidin-1-yl)-2-tert-butyl-4-oxo-6,9,12,15-tetraoxa-3-azanonadecane)-4-hydroxy-N-(4-(4-methylthiazol-5-yl)benzyl)pyrrolidine-2-carboxamide], the “HER3 Degradation” value [2] was “No”.
With `Nc1ncnc2c1c(-c1ccc(Oc3ccccc3)cc1)nn2C1CCN(CCCCCCOCCCCCCOCC(=O)Nc2cccc3c2C(=O)N(C2CCC(=O)NC2=O)C3=O)CC1` (stereo not drawn) [Compound 107, 2-(6-(6-(4-(4-amino-3-(4-phenoxyphenyl)-1H-pyrazolo[3,4-d]pyrimidin-1-yl)piperidin-1-yl)hexyloxy)hexyloxy)-N-(2-(2,6-dioxopiperidin-3-yl)-1,3-dioxoisoindolin-4-yl)acetamide] the “HER3 Degradation” value [2] was “No”.
In the case of `Cc1ncsc1-c1ccc(CNC(=O)[C@@H]2C[C@@H](O)CN2C(=O)[C@@H](NC(=O)COCCOCCOCCOCCCCCCN2CCC(n3nc(-c4ccc(Oc5ccccc5)cc4)c4c(N)ncnc43)CC2)C(C)(C)C)cc1` [Compound 115, (2S,4R)-1-((S)-22-(4-(4-amino-3-(4-phenoxyphenyl)-1H-pyrazolo[3,4-d]pyrimidin-1-yl)piperidin-1-yl)-2,2-dimethyl-5-oxo-7,10,13,16-tetraoxa-4-azadocosanecarbonyl)-4-hydroxy-N-(4-(4-methylthiazol-5-yl)benzyl)pyrrolidine-2-carboxamide], the “HER3 Degradation” value [2] was “No”.
For `Cc1ncsc1-c1ccc(CNC(=O)[C@@H]2C[C@@H](O)CN2C(=O)[C@@H](NC(=O)COCCOCCOCCOCCN2CCN(C3CCC(n4nc(-c5ccc(Oc6ccccc6)cc5)c5c(N)ncnc54)CC3)CC2)C(C)(C)C)cc1` (stereo partly drawn) [Compound 114, (2S,4R)-1-((S)-17-(4-(4-(4-amino-3-(4-phenoxyphenyl)-1H-pyrazolo[3,4-d]pyrimidin-1-yl)cyclohexyl)piperazin-1-yl)-2-tert-butyl-4-oxo-6,9,12,15-tetraoxa-3-azaheptadecane)-4-hydroxy-N-(4-(4-methylthiazol-5-yl)benzyl)pyrrolidine-2-carboxamide], the “HER3 Degradation” value [2] was “No”.
In the case of `Cc1ncsc1-c1ccc(CNC(=O)[C@@H]2C[C@@H](O)CN2C(=O)[C@H](C(C)C)N2Cc3ccccc3C2=O)c(OCCCOCCC(=O)N2CCC(n3nc(-c4ccc(Oc5ccccc5)cc4)c4c(N)ncnc43)CC2)c1` [Compound 128, (2S,4R)—N-(2-(3-(3-(4-(4-amino-3-(4-phenoxyphenyl)-1H-pyrazolo[3,4-d]pyrimidin-1-yl)piperidin-1-yl)-3-oxopropoxy)propoxy)-4-(4-methylthiazol-5-yl)benzyl)-4-hydroxy-1-((S)-3-methyl-2-(1-oxoisoindolin-2-yl)butanoyl)pyrrolidine-2-carboxamide], the Dmax ([1]; NAMALWA cells, read-out: Dmax) was < 50%, the DC50 ([1]; Table 6, in NAMALWA cells line) was > 1 µM and the Dmax ([1]; Table 6, in NAMALWA cells line) was <50%.
With `Cc1ncsc1-c1ccc(CNC(=O)[C@@H]2C[C@@H](O)CN2C(=O)[C@H](C(C)C)N2Cc3ccccc3C2=O)c(OCCCCOCCCCN2CCC(n3nc(-c4ccc(Oc5ccccc5)cc4)c4c(N)ncnc43)CC2)c1` [Compound 127, (2S,4R)—N-(2-(4-(4-(4-(4-amino-3-(4-phenoxyphenyl)-1H-pyrazolo[3,4-d]pyrimidin-1-yl)piperidin-1-yl)butoxy)butoxy)-4-(4-methylthiazol-5-yl)benzyl)-4-hydroxy-1-((S)-3-methyl-2-(1-oxoisoindolin-2-yl)butanoyl)pyrrolidine-2-carboxamide] the Dmax ([1]; NAMALWA cells, read-out: Dmax) was < 50%, the DC50 ([1]; Table 5, NAMALWA cells) was > 1 µM and the DC50 ([1]; Table 6, in NAMALWA cells line) was > 1 µM. For the same compound, the Dmax ([1]; Table 6, in NAMALWA cells line) was <50%.
For `CN1C(=O)CCC(N2C(=O)c3ccc(NC(=O)COCCOCCN4CCC(n5nc(-c6ccc(Oc7ccccc7)cc6)c6c(N)ncnc65)CC4)cc3C2=O)C1=O` (stereo not drawn) [Compound 130, 2-(2-(2-(4-(4-amino-3-(4-phenoxyphenyl)-1H-pyrazolo[3,4-d]pyrimidin-1-yl)piperidin-1-yl)ethoxy)ethoxy)-N-(2-(1-methyl-2,6-dioxopiperidin-3-yl)-1,3-dioxoisoindolin-5-yl)acetamide], the “ability to degrade BTK” value ([1]; NAMALWA cells) was “neither ibrutinib nor Compound 130 were able to induce degradation of BTK”.
With `Cc1ncsc1-c1ccc(CNC(=O)[C@@H]2C[C@@H](O)CN2C(=O)[C@@H](NC(=O)COCCOCCOCCOCCN2CCC(n3nc(-c4ccc(Oc5ccccc5)cc4)c4c(N)ncnc43)CC2)C(C)(C)C)cc1` [Compound 109, (2S,4R)-1-((S)-17-(4-(4-amino-3-(4-phenoxyphenyl)-1H-pyrazolo[3,4-d]pyrimidin-1-yl)piperidin-1-yl)-2-tert-butyl-4-oxo-6,9,12,15-tetraoxa-3-azaheptadecane)-4-hydroxy-N-(4-(4-methylthiazol-5-yl)benzyl)pyrrolidine-2-carboxamide] the “HER3 Degradation” value [2] was “No”.
In the case of `Nc1ncnc2c1c(-c1ccc(Oc3ccccc3)cc1)nn2C1CCN(CCCCOCCCCOCC(=O)Nc2ccc3c(c2)C(=O)N(C2CCC(=O)NC2=O)C3=O)CC1` (stereo not drawn) [Compound 105, 2-[4-[4-[4-[4-amino-3-(4-phenoxyphenyl)pyrazolo[3,4-d]pyrimidin-1-yl]-1-piperidyl]butoxy]butoxy]-N-[2-(2,6-dioxo-3-piperidyl)-1,3-dioxo-isoindolin-5-yl]acetamide], the “HER3 Degradation” value [2] was “No”.
In the case of `Nc1ncnc2c1c(-c1ccc(Oc3ccccc3)cc1)nn2C1CCN(CCOCC(=O)Nc2cccc3c2C(=O)N(C2CCC(=O)NC2=O)C3=O)CC1` (stereo not drawn) [Compound 100, 2-(2-(4-(4-amino-3-(4-phenoxyphenyl)-1H-pyrazolo[3,4-d]pyrimidin-1-yl)piperidin-1-yl)ethoxy)-N-(2-(2,6-dioxopiperidin-3-yl)-1,3-dioxoisoindolin-4-yl)acetamide], the “ability to degrade BTK” value ([1]; NAMALWA cells) was “inability to degrade BTK”.
With `Nc1ncnc2c1c(-c1ccc(Oc3ccccc3)cc1)nn2C1CCN(CCOCCOCC(=O)Nc2cccc3c2C(=O)N(C2CCC(=O)NC2=O)C3=O)CC1` (stereo not drawn) [Compound 101, 2-(2-(2-(4-(4-amino-3-(4-phenoxyphenyl)-1H-pyrazolo[3,4-d]pyrimidin-1-yl)piperidin-1-yl)ethoxy)ethoxy)-N-(2-(2,6-dioxopiperidin-3-yl)-1,3-dioxoisoindolin-4-yl)acetamide] the “ability to degrade BTK” value ([1]; NAMALWA cells) was “inability to degrade BTK”.
In the case of `Nc1ncnc2c1c(-c1ccc(Oc3ccccc3)cc1)nn2C1CCN(CCCOCCCOCCC(=O)Nc2cccc3c2C(=O)N(C2CCC(=O)NC2=O)C3=O)CC1` (stereo not drawn) [Compound 103, 3-(3-(3-(4-(4-amino-3-(4-phenoxyphenyl)-1H-pyrazolo[3,4-d]pyrimidin-1-yl)piperidin-1-yl)propoxy)propoxy)-N-(2-(2,6-dioxopiperidin-3-yl)-1,3-dioxoisoindolin-4-yl)propanamide], the “HER3 Degradation” value [2] was “No”.
